# According to PubChem BioAssay (NCI):
# Values joined by “and” are separate entries in the source; they are usually repeats but may differ in a detail not shown here. Equal entries are not always repeated.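 Cells were grown in 96-well plates and exposed to each compound for 48 hours at five concentrations; endpoints were interpolated linearly between bracketing concentrations, or set to the highest concentration if not reached. GI50: concentration for 50% inhibition of growth. TGI: concentration producing complete growth inhibition.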
# Experiments:
# Test in all cases: NCI-60 cell line screen, 48 h
# MDA-MB-231 breast = test system: MDA-MB-231 breast
# A549 NSCLC = test system: A549 NSCLC
# SK-MEL-5 melanoma = test system: SK-MEL-5 melanoma
# COLO 205 colon = test system: COLO 205 colon
# UACC-257 melanoma = test system: UACC-257 melanoma
# M14 melanoma = test system: M14 melanoma
# HS 578T breast = test system: HS 578T breast
# U251 CNS = test system: U251 CNS
# OVCAR-5 ovarian = test system: OVCAR-5 ovarian
# KM12 colon = test system: KM12 colon
SMILES,GI50 (MDA-MB-231 breast),TGI (MDA-MB-231 breast),GI50 (A549 NSCLC),TGI (A549 NSCLC),GI50 (SK-MEL-5 melanoma) [µM],TGI (SK-MEL-5 melanoma),GI50 (COLO 205 colon) [µM],TGI (COLO 205 colon),GI50 (UACC-257 melanoma) [µM],TGI (UACC-257 melanoma) [µM],GI50 (M14 melanoma) [µM],TGI (M14 melanoma),GI50 (HS 578T breast),TGI (HS 578T breast) [µM],GI50 (U251 CNS) [µM],TGI (U251 CNS),GI50 (OVCAR-5 ovarian) [µM],TGI (OVCAR-5 ovarian) [µM],GI50 (KM12 colon),TGI (KM12 colon)
C[C@]12CC[C@H]3[C@@H](C[C@@H]4N=C(c5ccc(O)cc5)S[C@@]45C[C@H](O)CC[C@]35C)[C@@H]1CC[C@@H]2O,6.98 µM,32.8 µM,5.95 µM,> 100 µM,3.15,13.1 µM,9.14,> 100 µM,19.1,> 100,2.86,29.3 µM,1.59 µM,60.1,2.23,67.3 µM,13.3,> 100,7.24 µM,> 100 µM
NC[C@@](O)(c1ccc(Cl)cc1)c1ccc(-c2cn[nH]c2)cc1,3.24 µM and 2.76 µM,52.3 µM and > 10 µM,1.5 µM and 1.41 µM,4.08 µM and 3.21 µM,–,> 100 µM,1.48,3.18 µM,1.7,4.57,2.34,5.98 µM,0.471 µM and 0.173 µM,–,1.49,3 µM,8.67,> 10,3.44 µM and 3.48 µM,> 100 µM
C=C1N(C)c2ccc(Cl)cc2C1(C)C,16.7 µM,57.4 µM,17.4 µM,> 100 µM,4.32,15 µM,2.1,4.36 µM,6.84,60.5,5.73,24.5 µM,6.34 µM,> 100,3.68,57.2 µM,31,> 100,3.95 µM,13.7 µM
CCN(CC(COc1ccc2c(c1)[n+]([O-])nc(N)[n+]2[O-])OC(C)=O)C(C)=O (stereo not given),–,> 100 µM,–,> 100 µM,–,> 100 µM,–,> 100 µM,–,> 100,–,> 100 µM,–,> 100,–,> 100 µM,–,> 100,–,> 100 µM
S=C(N/N=C(/c1ccccc1)c1ccccn1)Nc1cccc(Cl)c1,–,2.27 µM,1.82 µM,5.56 µM and 7.58 µM,0.358,1.46 µM and 4.08 µM,0.0168,2.2 µM and 21.6 µM,0.00172,–,0.0154,2.24 µM and 1.89 µM,0.0125 µM,–,0.0513,2.91 µM and 4.58 µM,0.05,4.47,0.144 µM,3.55 µM and 6.75 µM
Cc1ccccc1/C=C1\CN(C(=O)OC(C)(C)C)C/C(=C\c2ccccc2C)C1=O,3.49 µM,12.6 µM,2.82 µM,9.17 µM,2.12,4.49 µM,2.22,5.25 µM,3.12,9.92,2.97,13.5 µM,3.99 µM,83.1,1.82,3.95 µM,2.16,4.86,2.03 µM,4.68 µM
Cc1nc2cc(N)c(Cl)cc2[nH]1,–,> 100 µM,–,> 100 µM,–,> 100 µM,–,> 100 µM,–,> 100,–,> 100 µM,–,> 100,–,> 100 µM,–,> 100,–,> 100 µM
N=c1ccn2c(n1)O[C@@H]1[C@@H](O)[C@H](CO)O[C@@H]12,> 100 µM,> 100 µM,0.41 µM,> 100 µM,15.5,> 100 µM,2.41,> 100 µM,35,> 100,0.428,3.39 µM,> 100 µM,> 100,6.89,> 100 µM,49.3,> 100,27.3 µM,> 100 µM
CCCN1CCN(c2ccc3nc(-c4ccc5nc(-c6ccc(OCC)c(OCC)c6)[nH]c5c4)[nH]c3c2)CC1,1.21 µM,2.81 µM,0.808 µM,2.35 µM,0.424,1.77 µM,0.164,1.4 µM,0.64,2.47,0.195,1.39 µM,1.11 µM,3.56,0.398,1.55 µM,1.67,4.32,0.684 µM,2.08 µM
COc1ccc(-c2coc3cc(OC)cc(O)c3c2=O)cc1,–,> 100 µM,–,> 100 µM,–,> 100 µM,–,> 100 µM,–,> 100,–,> 100 µM,–,> 100,–,> 100 µM,–,> 100,–,> 100 µM
COc1cc2c3c(c4c5ccccc5[nH]c4c2c(OC)c1OC)C(=O)N(CCN1CCCCC1)C3=O,1.47 µM,3.08 µM,0.611 µM,2.3 µM,1.88,5.31 µM,0.849,3.25 µM,2.79,9.62,1.82,4.25 µM,1.84 µM,4.59,1.12,2.49 µM,1.29,3.05,1.02 µM,2.59 µM
Cc1ccc(NC(=O)c2nc(S(C)=O)oc2-c2ccc(F)cc2)cc1Nc1nccc(-c2cccnc2)n1 (stereo not given),1.94 µM,4.38 µM,5.15 µM,17.3 µM,1.84,3.59 µM,2.03,4.41 µM,2.72,7.74,1.99,4.34 µM,2.96 µM,8.94,1.98,3.57 µM,4.46,30.1,2.58 µM,7.14 µM
CCN(CC)CC(O)C1CCC(c2ccccc2)CC1 (stereo not given),–,37.6 µM,–,> 100 µM,–,30.4 µM,–,29.2 µM,–,50.5,–,80.4 µM,–,> 100,–,62.7 µM,–,88.9,–,71.3 µM
CC(=O)c1ccc(NCN2C(=O)c3ccccc3C2=O)cc1,–,> 100 µM,–,> 100 µM,–,> 100 µM,–,> 100 µM,–,> 100,–,> 100 µM,–,> 100,–,> 100 µM,–,> 100,–,> 100 µM
C=C(CN1CCN(c2cccc(F)c2)CC1)c1ccc(C(=O)Nc2ccccc2N)cc1,1.01 µM,4.27 µM,3.24 µM,16.3 µM,1.91,17.2 µM,2.93,9.09 µM,8.19,47.5,0.311,2.38 µM,2.61 µM,> 100,1.41,43 µM,2.61,> 100,1.38 µM,50.1 µM
O=C(/C=C/c1cccnc1)c1ccccc1O,17.7 µM,46.7 µM,37.1 µM,> 100 µM,16.1,31.1 µM,14.6,30.1 µM,25.4,60.3,16.9,34.1 µM,35.9 µM,> 100,22.2,81.1 µM,19,46.7,32.2 µM,> 100 µM
CN1CCCN(C(c2ccccc2)c2ccc(Br)cc2)CC1 (stereo not given),2.41 µM,7.81 µM,10.9 µM,25.6 µM,1.85,3.74 µM,3.93,16.2 µM,2.41,5.41,1.61,2.99 µM,2.37 µM,6.35,3,10.3 µM,10.7,22.5,2.73 µM,7.09 µM
Cn1c(=S)sc2nc3ccccc3n2c1=S,–,38 µM,–,97.5 µM,–,27 µM,–,25.9 µM,–,28.4,–,18.7 µM,–,95.9,–,25.1 µM,–,29.1,–,27.4 µM
O=C(CN1CCN(c2ccc(Cl)cc2)CC1)N1CCN(c2nnc(-c3ccccc3)c(-c3ccccc3)n2)CC1,> 100 µM,> 100 µM,28.6 µM,> 100 µM,2.11,8.31 µM,3.47,> 100 µM,26.6,> 100,> 100,> 100 µM,51.6 µM,> 100,8.02,> 100 µM,> 100,> 100,4.04 µM,> 100 µM
O=C1c2ccccc2C(=O)c2c1ccc1c2OCO1,–,> 100 µM,–,> 100 µM,–,> 100 µM,–,> 100 µM,–,> 100,–,> 100 µM,–,> 100,–,> 100 µM,–,> 100,–,> 100 µM
CC[C@]12CCCN3CC[C@]4(C(=C(C(=O)OC)C1)Nc1ccccc14)[C@@H]32,15.5 µM,38.1 µM,16.3 µM,42.6 µM,15.4,28.8 µM,16.9,35.7 µM,16.7,42.2,20.5,51.7 µM,17.3 µM,76.1,15.1,29.6 µM,15.9,34.1,16.7 µM,39.1 µM
